Data: patent US11439656B2, “Pharmaceutical compounds and uses thereof” (Regents of the University of Minnesota, priority 2018, dated 2022)
Each block holds one compound with its values, some of them ahead of it.

Columns and labels:
[1] = tested on: p53 tumor suppressor protein; experiment: Western blot of p53 and p21Cip1 induction in SH-SY5Y cells; assay type: cell-based, human
Procedure: (§1) Cell culture, cell extract preparation, SDS-PAGE, and western blot: SH-SY5Y pediatric neuroblastoma cells were purchased from ATCC. Pediatric glioblastoma multiforme cell line CHLA-200 was a generous gift from Dr. C. Patrick Reynolds (Texas Tech). Cancer cells were cultured in RPMI-1640 supplemented with 10% fetal bovine serum (FBS) and 1% Penicillin-Streptomycin. Cells were lysed with RIPA lysis buffer (Millipore) containing protease inhibitor cocktails (Roche). The protein concentration was measured by the Lowry method. Equal amounts of protein were subjected to SDS-PAGE and then transferred to a PVDF membrane. The proteins of interest were then probed with their respective antibodies.
(§2) SH-SY5Y cells were treated with 4Ei-10. SH-SY5Y is a neuroblastorna cell line that contains wild-type p53. 4Ei-10 is a small molecule translation inhibitor. It is a prodrug that is converted to N7-chlorophenoxyethyl guanosine monophosphate by the enzyme hHINT1 in the cell as shown in FIG. 1A. N7-chlorophenoxyethyl guanosine monophosphate competes with the cap structure for binding to eIf-4E, preventing the recruitment of the 5′ mRNA cap structure to the eIF-4F complex. […] A time-course study was then performed by treating SH-SY5Y cells with 4Ei-10 at a concentration of 100 μM.
To determine if the increase of the p53 tumor suppressor protein caused by 4Ei-10 is associated with enhanced p53 tumor suppressor protein synthesis, SH-SY5Y cells were treated with 4Ei-10 or 4Ei-10 plus cycloheximide, a protein synthesis (elongation) inhibitor.

[2] = tested on: SH-SY5Y cells; experiment: Western blot of PARP cleavage (apoptosis) in SH-SY5Y cells; assay type: cell-based
Procedure: as §1
Since the p53 tumor suppressor protein is also a stimulator of cell apoptosis, the levels of PARP, a substrate of caspase 3, were examined in SH-SY5Y cells treated with 4Ei-10.

[3] = tested on: SH-SY5Y cells; experiment: Indirect immunofluorescence of phosphorylated H2A.X foci (DNA double strand breaks); assay type: cell-based; conditions: nucleus
Procedure: Indirect immunofluorescence: Chamber slides (8 wells, Lab-Tek) were treated with Poly-L-Lysine (Sigma) prior to seeding with SH-SY5Y cells at 8000 cells/well. Sub-confluent cells were treated with different reagents. After treatment, cells were briefly fixed in 3% paraformaldehyde solution and were then permeablized with 0.2% Triton X-100 in Tris-buffered saline. After permeabilization, cells were incubated with a phosphor-Histone H2A.X antibody (Millipore) and then with a Texas-Red conjugated secondary antibody (Jackson Laboratories) followed by DAPI staining. Images were recorded using a Nikon Eclipse TE2000-E confocal microscope at 60× magnification.
Foci formation of phosphorylated H2A.X, which recognizes DNA double strand breaks, was examined.

[4] = target: T1, eIF4E and eIF4G (Homo sapiens, UniProt P06730); experiment: m7-GTP Sepharose bead pull-down of eIF4E and eIF4G; assay type: cell-based; conditions: SH-SY5Y cells, 100 μM, 24 hours
T1 construct: endogenous in cells; host or cells: SH-SY5Y
Procedure: SH-SY5Y cells were treated with 100 μM 4Ei-10 for 24 hours. After treatment, cells were lysed and equal amounts of proteins were incubated with m^7-GTP Sepharose beads. After incubation, beads were washed and mixed with SDS-PAGE loading buffer. The eluted proteins were then subjected to SDS-PAGE and transferred to a PVDF membrane. Bound eIF4G and eIF-4E were then detected with total eIF4E and total β-actin as input controls.

[5] = tested on: IRES of p53 mRNA; experiment: Dual luciferase assay of p53 IRES activity (pR5UTRF reporter); assay type: cell-based; conditions: SH-SY5Y cells transfected with pR5UTRF, compared to untreated control cells
Procedure: Dual luciferase assays: Cells were lysed with passive lysis buffer (Promega). The dual-luciferase reporter assay (Promega) was then performed according to the manufacturer's instructions. Firefly and Renilla luciferase activities were determined with a Synergy 2 (BioTek) microplate reader.
To determine if the IRES activity of p53 mRNA increases during 4Ei-10 treatment when cap-dependent protein translation is halted by 4Ei-10, a bicistronic dual-luciferase reporter vector pR5UTRF, which contains the IRES sequence (−131 nt before 1st AUG of p53 ORF, accession number, NM_00546.4) of the p53 mRNA, was used to transfect SH-SY5Y cells. The IRES activity of p53 mRNA was then measured as the ratio of firefly (Fluc, controlled by the IRES sequence of p53 mRNA) to Renilla luciferase (Rluc) activity, Rluc is controlled by eIF4E and cap-dependent protein translational machinery and was used as an internal control for Fluc.

[6] = tested on: SH-SY5Y cells; experiment: Flow cytometry assay of cell cycle distribution; assay type: cell-based
Procedure: Flow Cytometry Assay of Cell Cycle Distribution: Cells were seeded onto six well plates and were grown to sub-confluency. After treatment with or without 4Ei-10, cells were gently removed from the plates, washed once with cold PBS, and fixed with cold 70% ethanol. Cells were then stained with propidium iodide and subjected to flow cytometry (Becton Dickinson FACScalibur). The cell population at each phase was analyzed by the Modfit 2 software.
Since the p53 tumor suppressor protein is known to induce cell cycle arrest through induction of p21Cip1, a cell cycle distribution analysis was performed after treating SH-SY5Y cells with 4Ei-10.

[7] = tested on: SH-SY5Y cells; experiment: MTT cell viability assay; assay type: cell-based; conditions: different concentrations of 4Ei-10
Procedure: MTT cell viability assay: Cells were plated on a 24-well plate at 20,000 cells/well. After treatment with different reagents, the ratio of viable cells in each well was determined using a CellTiter Cell Proliferation kit (Promega) following the manufacturer's instructions. MTS solution was placed in each well at a ratio of 20 μL/100 μL of cell culture medium and incubated in a cell culture incubator for 2-3 hours. Absorbance was then measured at the wavelength of 492 nm with a microplate reader.
as §2

[8] = tested on: SH-SY5Y cells; experiment: Cell Death ELISA analysis; assay type: cell-based; conditions: data not shown
[9] = tested on: cell lines of mantle cell lymphoma (MCL); conditions: cited from earlier work
[10] = tested on: CHLA-200 cells; experiment: Western blot of p53, p21Cip1 and PARP cleavage in CHLA-200 cells; assay type: cell-based
Procedure: as §1
The ability of 4Ei-10 to induce the p53 tumor suppressor protein in other type of cell lines was also examined. CHLA-200 is a children's glioblastoma multiforme cell line with wild-type p53. CHLA-200 cells were treated with 100 μM 4Ei-10.

[11] = tested on: MCF-7 cells; experiment: Western blot of p53 and PARP cleavage in MCF-7 cells; assay type: cell-based; conditions: 4Ei-10 alone
Procedure: Sub-confluent MCF-7 cells were treated with either 100 μM 4Ei-10, 50 μM 4EGI-1, or both for 24 hours. After treatment, both floating and attached cells were collected and lysed. Equal amounts of protein were subjected to SDS-PAGE and transferred to a PVDF membrane. p53, PARP, cleaved PARP, and β-actin were detected with their respective antibodies.

T1 sequence (P06730 2-217 limits assumed): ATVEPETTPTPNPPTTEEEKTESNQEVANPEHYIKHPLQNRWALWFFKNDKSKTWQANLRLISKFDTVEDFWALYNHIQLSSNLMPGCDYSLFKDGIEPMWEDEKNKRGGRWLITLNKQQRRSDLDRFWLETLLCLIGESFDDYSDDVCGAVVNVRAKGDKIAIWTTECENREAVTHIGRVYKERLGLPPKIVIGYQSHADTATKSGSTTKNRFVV

Compound: O=C(O)C(Cc1ccccc1[N+](=O)[O-])=NNc1nc(-c2ccc(Cl)c(Cl)c2)cs1 (mixture of isomers) [4EGI-1, reference compound]
induction of the p53 tumor suppressor protein, comparison of single agents and combination [1]: stronger ability
induction of cellular apoptosis, comparison of single agents and combination [2]: stronger ability

foci formation of phosphorylated H2A.X (DNA double strand breaks) [3]: not seen
eIF4E bound to the m7-GTP Sepharose beads [4]: decreased
eIF4G bound to the m7-GTP Sepharose beads [4]: decreased
IRES activity of p53 mRNA (ratio of Fluc/Rluc) [5]: significantly increased
Compound: CSCCOP(=O)(NCCc1c[nH]c2ccccc12)OC[C@H]1O[C@@H](n2c[n+](CCOc3ccc(Cl)cc3)c3c(=O)[nH]c(N)nc32)C(O)C1O (stereo partly drawn) [4Ei-10]
expression of p53 downstream target p21Cip1 ([1]; 100 μM, time-course): increased expression
p53 tumor suppressor protein accumulation ([1]; 100 μM, time-course): induced p53 tumor suppressor protein accumulation
p53 tumor suppressor protein accumulation with or without cycloheximide ([1]; protein synthesis inhibitor experiment): induction of the p53 tumor suppressor protein
cell numbers at the G1 phase [6]: substantial increase
cell numbers at the S phase [6]: dramatic decrease
G1S ratio, an indicator of G1 cell cycle arrest ([6]; compared to control cells): two-fold increase
cell viability or cell proliferation [7]: decrease in cell viability or cell proliferation in a concentration-dependent manner
cell death or apoptosis [8]: enhanced cell death or apoptosis
c-Myc expression [9]: suppression of c-Myc expression
expression of p27 [9]: induce the expression of p27
cell proliferation and cell survival ([9]; multiple cell lines of mantle cell lymphoma): inhibits cell proliferation and cell survival
chemosensitization ([9]; to doxorubicin, dexamethasone, and ibrutinib): enhanced chemosensitization
cell apoptosis ([10]; CHLA200 cells): increased cell apoptosis
induction of the p53 tumor suppressor protein ([10]; CHLA200 cells): Induction of the p53 tumor suppressor protein was observed
PARP cleavage (apoptosis) ([10]; CHLA-200 cells, 100 μM): induced
p21Cip1 induction (cell cycle arrest) ([10]; CHLA-200 cells, 100 μM): induced
cleaved PARP (cellular apoptosis) ([2]; 100 μM): increase of cleaved PARP
strength of apoptosis induced ([2]; 100 μM): relatively weak
treatment time after which apoptosis could be seen ([2]; 100 μM, prolonged treatment): ≥ 24 h
cell apoptosis [11]: increased cell apoptosis
induction of the p53 tumor suppressor protein [11]: Induction of the p53 tumor suppressor protein was observed
